Experimental data from patent publication US6444837B1, “Synthesis and antiviral activity of a series of pyrophosphate analogs” (University of Southern California, priority 1998, dated 2002).

Columns and labels:
[1] = test system: Cytomegalovirus (CMV); conditions: clinical trials, AIDS patients; cited from earlier work
[2] = XTT-tetrazolium assay of compound toxicity to host cells; type: cell-based; conditions: human; Table IV, six concentrations; read-out: TC50
Experimental: Culturing these cells in the presence of phobol ester induces a lytic infection cycle, resulting in the release of viral particles into the medium. Compound efficacy in this proposed assay was determined using the Taqman PCR technology, and compound toxicity to host cells was assessed using an XTT-tetrazolium assay.
1. BCBL-1 cells were counted by the trypan blue dye exclusion method, and the cell count/mL was determined. Cells were pelleted by centrifugation and washed once with PBS to minimize the basal level of virus released from untreated cells which spontaneously enter the lytic cycle and release virus.
2. Cells were resuspended in fresh media and adjusted to a cell density of 1×10^5 per mL. Cells were then plated in the interior wells of 96-well round-bottom microtiter plates in a volume of 50 μL per well.
3. The phorbol ester TPA was added to appropriate wells in a volume of 50 μL per well to yield a final concentration of 20 ng/mL. Medium was added in place of TPA in three wells to serve as a negative control.
4. Test compounds were diluted in DMSO to a stock concentration which is 400× the desired high concentration. These compounds were further diluted in complete medium in 1.2 mL titertubes to yield a solution which is 2× the desired high concentration. […]
2. […] Plates were read on UVMax microtiter plate reader at a wavelength of 450/650 nm.

[3] = biological target: HIV reverse transcriptase (Human immunodeficiency virus type 1 group M subtype B, UniProt P03366); conditions: HIV RT; cited from earlier work
[4] = test system: HHV-8; assay: quantitative PCR-based (Taqman) assay for agents active against HHV-8 in TPA-induced BCBL-1 cells; type: cell-based, human herpesvirus 8
Experimental: 3. […] Samples were incubated at 37° C. for 30 minutes.
4. […] Total reaction volumes were 50 μL.

[5] = in vivo; cited from earlier work

## O=C(O)P(=O)(O)O [Foscarnet, Trisodium phosphonoformate]
[1]
  efficacy in treatment of CMV infection: efficacious
  nephrotoxicity: reversible nephrotoxicity
[2]
  CC50 at 6 days: > 300 µM
[3]
  IC50: ~1 µM
[4]
  TI (therapeutic index): >38.9
[4]; Human gammaherpesvirus 8, BCBL1, Table IV, six concentrations, Foscarnet value is average of six separate tests
  IC50: 7.7 µM
[4]; Table IV, by TI
  Activity: active
[5]
  oral bioavailability: low

## CCCCCCCCCCCCCCOC(=O)P(=O)([O-])OC.[Na+] [ID# 8]
[4]; bioassay with HHV-8
  antiviral activity against HHV-8 (in words): moderate to relatively high antiviral activity
